Our source for the relative viability values is the supplement of paper PMC10307832.

Holding throughout (test): relative viability (nuclei count vs DMSO), 5 days (fraction); higher = more cells survive
Compound in one assay: C1CSC2=C(C(=O)N1)SC3=C2C=C(C=C3)O [kb NB 142-70]
The method, boiled down: (§1)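 Vehicle-anchored 1536-well plates of lung cancer cell lines, held overnight at 37 °C, were pinned with five library-drug doses (not always all listed) spaced by √10. No medium change followed over the next 5 days, after which the cells were fixed, permeabilised and Hoechst-stained together and imaged at 4×. Nuclei were counted with MetaXpress, and viability is treated-well nuclei over vehicle-well nuclei, taken as a median across plates. Plates passed with control CV below 25% and at least one doubling.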

Compound in assay [1]: NCC(=O)Nc1ccc(-n2nc(C(F)(F)F)cc2-c2ccc3c(ccc4ccccc43)c2)cc1
An outline of the steps:
as §1

Compound in assay [2]: C1CSC2=C(C(=O)N1)SC3=C2C=C(C=C3)O [kb NB 142-70] + CC(=O)Nc1cccc(-n2c(=O)n(C3CC3)c(=O)c3c(Nc4ccc(I)cc4F)n(C)c(=O)c(C)c32)c1 [Trametinib] (partner 0.02 µM)
The method, boiled down:
(§2)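 Lung cancer cell lines, seeded in 1536-well plates, were treated the following day by pin tool with a single drug or with five library-drug doses (not always all listed) in √10 steps on top of a fixed anchor-drug dose. Cells were fixed and nuclei stained in one step after 5 days, and nuclei were counted. Relative viability is the nuclei count for treated wells divided by that for vehicle wells, reported as medians of duplicate plates.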

Compound in assay [3]: NCC(=O)Nc1ccc(-n2nc(C(F)(F)F)cc2-c2ccc3c(ccc4ccccc43)c2)cc1 + CC1(C)CCC(c2ccc(Cl)cc2)=C(CN2CCN(c3ccc(C(=O)NS(=O)(=O)c4ccc(N[C@H](CCN5CCOCC5)CSc5ccccc5)c(S(=O)(=O)C(F)(F)F)c4)cc3)CC2)C1 [Navitoclax] (partner 0.5 µM)
The method, boiled down:
as §2

In the case of NCI-H1395, the relative viability in the assay with kb NB 142-70 (0.1 µM) turned out to be 1.01; with kb NB 142-70 (1 µM), 0.963; with kb NB 142-70 (3.162 µM), 0.601; in assay [1] (0.02 µM), 0.941; in assay [1] (0.06325 µM), 0.983; in assay [1] (0.2 µM), 0.755. Further, the relative viability in assay [1] (0.6325 µM) came to 0.858; in assay [1] (2 µM), 1; in assay [2] (first compound 0.1 µM), 1.02; in assay [2] (first compound 1 µM), 0.891; in assay [2] (first compound 3.162 µM) it was 1.02; in assay [3] (first compound 0.02 µM), 1.12. In addition, the relative viability in assay [3] (first compound 0.06325 µM) came out at 1.16; in assay [3] (first compound 0.2 µM), 1.16; in assay [3] (first compound 0.6325 µM), 1.11; in assay [3] (first compound 2 µM), 1.22.

NCI-H838: the relative viability with kb NB 142-70 (0.1 µM) came out at 0.965; with kb NB 142-70 (1 µM), 0.961; in the assay with kb NB 142-70 (3.162 µM), 0.963; in assay [1] (0.02 µM), 0.958; in assay [1] (0.06325 µM), 0.998; in assay [1] (0.2 µM), 1. In addition, the relative viability in assay [1] (0.6325 µM) was found to be 0.909; in assay [1] (2 µM), 0.864; in assay [2] (first compound 0.1 µM) it was 0.546; in assay [2] (first compound 1 µM) it was 0.525; in assay [2] (first compound 3.162 µM), 0.532; in assay [3] (first compound 0.02 µM) it was 1.19. For the same cell line, the relative viability in assay [3] (first compound 0.06325 µM) was found to be 1.12; in assay [3] (first compound 0.2 µM) it was 1.34; in assay [3] (first compound 0.6325 µM), 1; in assay [3] (first compound 2 µM), 1.

Turning to CAL-12T, the relative viability stood at 0.985 with kb NB 142-70 (0.1 µM); 1.07 with kb NB 142-70 (1 µM); 0.904 with kb NB 142-70 (3.162 µM); 0.957 in assay [1] (0.02 µM); 1.01 in assay [1] (0.06325 µM); 1.05 in assay [1] (0.2 µM). The relative viability in assay [1] (0.6325 µM) is 0.949; in assay [1] (2 µM), 1.08; in assay [2] (first compound 0.1 µM), 0.341; in assay [2] (first compound 1 µM), 0.39; in assay [2] (first compound 3.162 µM), 0.241; in assay [3] (first compound 0.02 µM) it was 1.17. Also, the relative viability in assay [3] (first compound 0.06325 µM) stood at 1.19; in assay [3] (first compound 0.2 µM), 1.37; in assay [3] (first compound 0.6325 µM) it was 1.2; in assay [3] (first compound 2 µM), 1.34.
